Measured values as given in patent US8846914B2, “Compositions to effect neuronal growth” (Neuralstem, Inc., priority 2003, dated 2014).
Like-named read-outs stand apart in the source and are kept apart here.

What was measured:
[1] = tested on: human hippocampal stem cells; assay: Neurogenesis, TuJ1 immunostaining / Hoechst (primary screen); format: cell-based; settings: seven days of compound treatment; for Neuron Number (% of Control): TuJ1+ neurons per area; for Neuron Ratio (% of Control): ratio neuron:total cells (TuJ1/Hoechst)
From the text: FIG. 2 is a bar graph illustrating an example of a neurogenesis profile of compounds selected from primary screening. After seven days of compound treatment, the cells were stained with the neuron-specific anti-tubulin IIIb antibody. TuJ1, for neurons and Hoechst for all cell nuclei. Shown are the relative ratio of neuron: total cells for each compound over the vehicle control in percentage. Typical ratio for vehicle control is 40-50% neurons. The ratio can change by either increased differentiation of stem cells to neurons, decreased proliferation of astrocytes, or increased proliferation of neuronal progenitors.
FIG. 3 is a bar graph illustrating an example of a neurogenesis profile of compounds selected from primary screening. After seven days of compound treatment, the cells were stained with TuJ1 for neurons. The number of TuJ1+ neurons per area was quantified and expressed as a relative value to the vehicle treated control.
The final neuron number is detected by immunostaining of the culture with antibodies against neurons and is quantified by counting of the immunopositive neurons and/or by measuring the staining intensity. Therefore, after seven days of compound treatment, the cells are stained with the neuron-specific anti-tubulin IIIb antibody, TuJ1, for neurons and Hoechst for all cell nuclei. The number of TuJ1+ neurons per area is quantified and expressed as a value relative to the vehicle-treated control of Hoechst-stained cells. In this regard, the medium is removed from the wells by decanting and blotting the plates on paper towels. The cells are then fixed in 100 μl of 4% paraformaldehyde per well for thirty minutes at room temperature. The cells are washed three times with 400 μl per well of phosphate-buffered saline (PBS) at pH 7.5 for approximately ten minutes per wash. The plates are then stored at 4° C. in PBS or used immediately for staining.
The cells are subsequently stained with antibodies against neuron-specific antigens according to standard procedures. The staining process includes decanting the PBS and blocking the cells with 100 μl of 5% Normal Goat Serum (NGS) in PBS for one hour at room temperature. The NGS/PBS is decanted and the plates are blotted on a paper towel. The cells are then permeabilized with 0.1% Triton X-100 in PBS for 30 minutes at room temperature.
Typical neuron-specific antigens include Type III-beta tubulin and MAP-2c. The total cell number in each well was quantified by staining the cultures with a nuclear dye such as DAPI or Hoechst according to standard procedures. Therefore, once the cells are permeabilized, 20 μl of TuJ1, monoclonal antibody against neuronal class 111 β-tubulin (CoVance (BabCo) MMS-435P) and 32 μl of anti-GFAP polyclonal (DAKO Z0334) are added to and mixed of PBS with 5% NGS. Final dilutions of TuJ1 and anti-GFAP are 1:400 and 1:250, respectively. 90 μl of the antibody solution is added to each well except two eleventh column. 90 μl of PBS/5% NGS is added to the eleventh column and no cells are added to the twelfth column. The plate(s) are sealed with parafilm and incubated at 4° C. overnight.
After incubating the cells overnight, the antibody solution is decanted and 200 μl of PBS/0.1% Triton X-100 is added to the wells. The plate(s) are placed on a shaker and incubated at room temperature with gentle shaking for ten minutes. The cells are again washed with the PBS/Triton X-100 solution another two times.
Following staining with TuJ1 and anti-GFAP, 20 μl of Alexa Fluor 488 labeled goat anti-moose IgG (H+L) (Molecular Probes A-11001) and 100 μl of LRSC-IgG, goat anti-rabbit (Jackson Immune 111-295-144) is added and mixed with 10 ml of PBS/5% NGS. 100 μl of the resulting antibody solution is added to each well. The plate(s) are covered with foil and incubated with gentle shaking for up to one hour at room temperature. The cells are again washed as described above with PBS and an Triton X-100. […]

[2] = tested on: Differentiating hippocampal human stem cells; assay: Long-term treatment in vitro neurogenesis; format: cell-based; settings: for activity at 10 µM: Homo sapiens, 504 h, three weeks, 5× with 10 μM, compared to the control; for Further increase in neuron numbers over long-term treatment: FIG. 11, compared to one week of treatment
Experimental: FIG. 11 is a bar graph illustrating an example of in vitro neurogenesis profile of the compounds for a long-term treatment. Differentiating hippocampal human stem cells mere treated with vehicle alone or with the test compounds for three weeks. Increase in cell number was determined compared to the control. Shown are several examples that are effective in continued neurogenesis. Bars represent mean+/−SD from six wells.
In another in vitro assay, compounds of the fused imidazole, iminopyrimidine, nicotinamide, aminomethyl phenoxypiperidine and aryloxypiperidine types are evaluated for their effect on the differentiation of the culture-born cells to mature neurons. More particularly, multipotent human hippocampal stem cells are treated in three doses over a one-week period in N2b media and in the presence of an agent of the type mentioned above. The cells are then fed twice weekly for approximately two more weeks in N2b or Neuralbasal+B27 Media (Gibco) and then cells are fixed using 4% paraformaldehyde. Cells are washed 3× with PBS (pH 7.4) and then stained using a nuclear stain (Hoechst or DAPI) and a mature neuronal marker, MAP-2ab (AP-20) antibody. A secondary antibody, Alexa Fluor 488 labeled goat anti-mouse IgG, is used to identify by fluorescent labeling the mature neurons. The fluorescent intensity and number of cells labeled in a multi-plate format can be measured using for instance a Array Scan II (Cellomics) or similar instrumentation.
Effects of the long-term NSI compound treatment on human hippocampal stem cells in the absence of mitogen is illustrated in FIG. 11. In FIG. 11, differentiating hippocampal human stem cells are treated with vehicle alone or with the test compounds for three weeks. Increase in cell number was determined compared to the control. Bars represent mean+/−SD from six wells. […] Several examples of NSI compounds are shown to be effective in continued neurogenesis. […] These agents comprise a class of compounds, aminopyrimidines, that, as shown previously, inhibited apoptosis. Accordingly, the aminopyrimidine class of compounds appear ideally suited for neurodegenerative long-term diseases including Alzheimer's disease and aging. Neurogenic agents that are neuroprotective like the sixteen compounds identified above might also be effective therapeutics for other neurodegenerative diseases in mammals including, but not limited to, stroke, traumatic brain injury, Parkinson's disease, and mild cognitive impairment.

[3] = read-out: Long Term Treatment #Neur
[4] = read-out: Long Term Treatment Neur Ratio
[5] = read-out: Long Term Treatment Prolif

CCCCNc1c(C2CCN(C(=O)CN(CC(C)C)S(C)(=O)=O)CC2)nc2cnccn12 [NSI-106]
Neuron Number (% of Control) [1]: 77 ± 12 % of Control | Neuron Ratio (% of Control) [1]: 92 ± 6 % of Control | activity at 10 µM [2, 3]: 137 ± 8% | activity at 10 µM [2, 4]: 120 ± 5% | activity at 10 µM [2, 5]: 92 ± 3%

CS(=O)(=O)N1CCCCC1C(=O)NCc1ccc(Nc2c(C3CC3)nc3ccccn23)cc1 (stereo not shown) [NSI-127]
Neuron Number (% of Control) [1]: 81 ± 13 % of Control | Neuron Ratio (% of Control) [1]: 104 ± 8 % of Control | activity at 10 µM [2, 3]: 135 ± 21% | activity at 10 µM [2, 4]: 131 ± 15% | activity at 10 µM [2, 5]: 103 ± 8%

COc1ccc(CCNc2ncc(C(N)=O)c(NC3CC3)n2)cc1OC [NSI-130]
Neuron Number (% of Control) [1]: 124 ± 8 % of Control | Neuron Ratio (% of Control) [1]: 128 ± 4 % of Control | Further increase in neuron numbers over long-term treatment [2]: effective in stimulating further increases in neuron numbers | activity at 10 µM [2, 3]: 128 ± 30% | activity at 10 µM [2, 4]: 92 ± 12% | activity at 10 µM [2, 5]: 115 ± 11%

CCCNc1ncc(C(N)=O)c(NC2CCCC2)n1 [NSI-137]
Neuron Number (% of Control) [1]: 151 ± 40 % of Control | Neuron Ratio (% of Control) [1]: 116 ± 8 % of Control | activity at 10 µM [2, 3]: 139 ± 35% | activity at 10 µM [2, 4]: 98 ± 18% | activity at 10 µM [2, 5]: 111 ± 10%

O=C(c1cccnc1N1CCNCC1)N1CCN(Cc2ccncc2)CC1 [NSI-142]
Neuron Number (% of Control) [1]: 152 ± 22 % of Control | Neuron Ratio (% of Control) [1]: 125 ± 15 % of Control | activity at 10 µM [2, 3]: 146 ± 34% | activity at 10 µM [2, 4]: 120 ± 21% | activity at 10 µM [2, 5]: 105 ± 26%

O=C(NC1CCN(Cc2ccccc2)CC1)c1cccnc1N1CCNCC1 [NSI-143]
Neuron Number (% of Control) [1]: 143 ± 6 % of Control | Neuron Ratio (% of Control) [1]: 130 ± 14 % of Control | activity at 10 µM [2, 3]: 102 ± 14% | activity at 10 µM [2, 4]: 103 ± 12% | activity at 10 µM [2, 5]: 153 ± 33%

NC(=O)c1cnc(NCc2ccc(Cl)cc2)nc1NCC1CCCCC1 [NSI-144]
Neuron Number (% of Control) [1]: 179 ± 29 % of Control | Neuron Ratio (% of Control) [1]: 137 ± 8 % of Control | Further increase in neuron numbers over long-term treatment [2]: effective in stimulating further increases in neuron numbers | activity at 10 µM [2, 3]: 170 ± 46% | activity at 10 µM [2, 4]: 123 ± 12% | activity at 10 µM [2, 5]: 97 ± 21%

CCCCNc1c(C2CCN(C(=O)c3ccc(C#N)cc3)CC2)nc2ccccn12 [NSI-149]
Neuron Number (% of Control) [1]: 113 ± 16 % of Control | Neuron Ratio (% of Control) [1]: 100 ± 6 % of Control | activity at 10 µM [2, 3]: 171 ± 19% | activity at 10 µM [2, 4]: 143 ± 11% | activity at 10 µM [2, 5]: 89 ± 13%

C=CCNC(=O)c1cccnc1NCc1ccccc1OC [NSI-150]
Neuron Number (% of Control) [1]: 107 ± 29 % of Control | Neuron Ratio (% of Control) [1]: 99 ± 6 % of Control | activity at 10 µM [2, 3]: 120 ± 10% | activity at 10 µM [2, 4]: 105 ± 7% | activity at 10 µM [2, 5]: 110 ± 25%

CC(C)(C)OC(=O)NCCNC(=O)c1cccnc1NCC1CCCCC1 [NSI-157]
Neuron Number (% of Control) [1]: 135 ± 15 % of Control | Neuron Ratio (% of Control) [1]: 142 ± 6 % of Control | activity at 10 µM [2, 3]: 139 ± 43% | activity at 10 µM [2, 4]: 107 ± 22% | activity at 10 µM [2, 5]: 146 ± 19%

NC(=O)C1CCCN1C(=O)c1cccnc1NCC1CCCCC1 (stereo not shown) [NSI-158]
Neuron Number (% of Control) [1]: 93 ± 17 % of Control | Neuron Ratio (% of Control) [1]: 106 ± 9 % of Control | activity at 10 µM [2, 3]: 141 ± 24% | activity at 10 µM [2, 4]: 114 ± 14% | activity at 10 µM [2, 5]: 99 ± 6%

O=C(NCc1nc2ccccn2c1NCC1CCCO1)Oc1ccccc1 (stereo not shown) [NSI-182]
Neuron Number (% of Control) [1]: 95 ± 9 % of Control | Neuron Ratio (% of Control) [1]: 125 ± 10 % of Control | activity at 10 µM [2, 3]: 121 ± 13% | activity at 10 µM [2, 4]: 111 ± 13% | activity at 10 µM [2, 5]: 95 ± 6%

O=C(COc1ccccc1)NCc1nc2ccccn2c1NCC1CCCO1 (stereo not shown) [NSI-183]
Neuron Number (% of Control) [1]: 128 ± 13 % of Control | Neuron Ratio (% of Control) [1]: 131 ± 4 % of Control | activity at 10 µM [2, 3]: 148 ± 30% | activity at 10 µM [2, 4]: 111 ± 16% | activity at 10 µM [2, 5]: 99 ± 19%

CS(=O)(=O)N(CC(=O)NCc1nc2ccccn2c1NCc1ccccc1)c1ccccc1 [NSI-185]
Neuron Number (% of Control) [1]: 141 ± 70 % of Control | Neuron Ratio (% of Control) [1]: 135 ± 15 % of Control | activity at 10 µM [2, 3]: 155 ± 30% | activity at 10 µM [2, 4]: 105 ± 19% | activity at 10 µM [2, 5]: 83 ± 25%

CC(C)CCNc1ncccc1C(=O)N1CCN(Cc2ccccc2)CC1 [NSI-189]
Neuron Number (% of Control) [1]: 102 ± 41 % of Control | Neuron Ratio (% of Control) [1]: 130 ± 19 % of Control | activity at 10 µM [2, 3]: 110 ± 26% | activity at 10 µM [2, 4]: 96 ± 19% | activity at 10 µM [2, 5]: 144 ± 17%

CCN(CCNC(=O)c1cccnc1NCCC(C)C)Cc1cccnc1 [NSI-190]
Neuron Number (% of Control) [1]: 130 ± 22 % of Control | Neuron Ratio (% of Control) [1]: 127 ± 9 % of Control | activity at 10 µM [2, 3]: 121 ± 19% | activity at 10 µM [2, 4]: 100 ± 12% | activity at 10 µM [2, 5]: 98 ± 11%
